Reference: US5310667A (priority 1989, dated 1994)

Columns and labels:
[1] = target: wild type petunia EPSP synthase (Petunia hybrida, UniProt P11043); assay: EPSP synthase kinetic constants (appKi glyphosate, appKm PEP); format: biochemical
Method: The reaction was quenched by the addition of 50 μl of 50 μl of 90% ethanol/0.1M acetic acid, pH 4.5. 70 μl of the reaction mixture was loaded on a SynchroPak AX100 HPLC column (0.4×25 cm) and the column was eluted with 0.5M potassium phosphate, pH 5.5 at 1 ml/min. The radioactivity of the eluent was monitored using a Radiomatic Flo-One Beta Instrument. […] The protein content of the extract was determined by the method of Bradford (Biorad Labs, Calif.). The specific activity of the extract is expressed as nanomoles of EPSP synthase formed/min/mg protein.
Reactions were quenched with 100 mM Na Acetate in ethanol, pH 4.5, centrifuged and analyzed for product EPSP formation by HPLC with flow radioactivity detection. HPLC conditions were 0.35 MKPi, pH 6.5, on a Synchropak AX100 column at 1.0 ml/min.

[2] = system: E. coli JM101 culture #215 (pMON8186); assay: Growth curve analysis in liquid MOPS medium with glyphosate; format: cell-based; settings: MOPS medium containing 10 mM glyphosate, 37° C.
Method: This growth curve analysis functioned as a tertiary screen and was performed in the following way:
Glyphosate resistant colonies were picked off the selection plates and inoculated individually into precultures containing 1 ml of MOPS medium and 50 μg/ml carbenicillin. The precultures were then grown to saturation by shaking the cultures overnight at 37° C. The next morning the density of each culture was determined by withdrawing a 100 μl aliquot from each and diluting it 10 fold with the addition of 900 μl MOPS medium, then reading the optical density at a wavelength of 660 nm in a spectrophotometer. The saturated precultures were then diluted to 1% by adding 50 μl from each saturated preculture to 5 ml of MOPS media containing 0, 5 or 10 mM glyphosate. The diluted precultures were grown in glass culture tubes fitted with stainless steel closures, rotating on a wheel at 37° C. The glass culture tubes were designed for direct reading in a Klett-Summerson photoelectric colorimeter, which was used to monitor the growth of the bacterial cultures at approximately 3 hour intervals.

[3] = target: wild type maize pre-EPSP synthase (pMON9951 product) (Zea mays, UniProt A0A1D6NVZ6); assay: EPSP synthase activity of in vitro translation product; format: biochemical; settings: 1.0 mM glyphosate
Method: (§1) To an assay mix (40 μl) containing shikimate-3-phosphate (2 mM), ^14 C-phosphoenolpyruvate (1 mM, 1.2 mCi/mmol), ammonium molybdate (0.1 mM), potassium fluoride (5 mM) in 50 mM HEPES-KOH, pH 7, was added the extract and incubated at 25° C. for 2 mins. The reaction was quenched by the addition of 50 μl of 50 μl of 90% ethanol/0.1M acetic acid, pH 4.5. 70 μl of the reaction mixture was loaded on a SynchroPak AX100 HPLC column (0.4×25 cm) and the column was eluted with 0.5M potassium phosphate, pH 5.5 at 1 ml/min. The radioactivity of the eluent was monitored using a Radiomatic Flo-One Beta Instrument. (Radiomatics, Fla.). The EPSP synthase activity was determined by measurement of the conversion of ^14 C-PEP to ^14 C-EPSP synthase, both of which are resolved under the above conditions of chromatography. The protein content of the extract was determined by the method of Bradford (Biorad Labs, Calif.). The specific activity of the extract is expressed as nanomoles of EPSP synthase formed/min/mg protein.
(§2) The linearized plasmid DNA was transcribed in vitro with T7 polymerase essentially as described by Krieg et al. (1984). The standard reaction buffer contained 40 mM Tris-HCl (pH 7.9), 6 mM MgCl2, 10 mM dithiothreitol, 2 mM spermidine, 80 U RNAsin ribuonuclease inhibitor, 0.5 mM each of ATP, GTP, CTP and UTP, in a final reaction volume of 100 μl. The final RNA pellet was resuspended in 20 μl of sterile water and stored at -80° C. A standard translation reaction contained 100 μl of nuclease-treated rabbit reticulocyte lysate, 5.7 μl of a 19-amino acid mixture (minus methionine) at 1 mM each, 5.7 μl of RNA (total RNA transcripts derived from 0.63 μg of plasmid DNA), 16 μl RNAsin (20U/μl) ribonuclease inhibitor, and 58.3 μl of [^35 S] methionine (14-15 mCi/ml). The in vitro translation products were stored frozen at -80° C.
(§3) The products of the in vitro translation were then assayed for EPSP synthase activity as described herein.

[4] = target: variant maize preenzyme product of pMON8617 (glycine to alanine and glycine to aspartate) (Zea mays, UniProt A0A1D6NVZ6, G163A/G206D); assay: as above; format: biochemical
Method: as §1, §2, §3

[5] = system: E. coli SR481 (aroA-) carrying pMON8152; assay: Growth on minimal medium containing glyphosate; format: cell-based
Method: The heterologous expression system was tested with a known variant to see if glyphosate resistant variants of petunia EPSPS could be selected. […] That was achieved by replacing the 660 bp EcoRI-HindIII region from both vectors with the 660 bp EcoRI-HindIII region from pMON9566 which contained the glycine (101) to alanine mutation.

[6] = target: petunia EPSP synthase with alanine for the first glycine of the conserved region (Petunia hybrida, UniProt P11043, G170A); assay: Glyphosate sensitivity of EPSP synthase variant; format: biochemical; settings: relative to wild type
[7] = system: tobacco plants transformed with glyphosate-tolerant petunia EPSP synthase gene (pMON567); assay: Relative effect of glyphosate spraying on transformed tobacco; format: in vivo, Nicotiana tobacam CV H425; parameters: key: 0 = total kill, 10 = normal unsprayed plant; settings: GT, 0 total kill, 10 no effect, best transformant
Method: Plasmid pMON530 DNA was digested with BglII and ClaI, to which was added the 330 bp BglII-EcoRI EPSP synthase 5' fragment from pMON536 and purified 1.4 kb EcoRI-ClaI EPSP synthase 3' fragment from pMON9566 and then treated with T4 DNA ligase. Following transformation a plasmid was isolated that carried the intact glycine (101) to alanine variant EPSP synthase coding sequence of petunia (with the coding sequence for the chloroplast transmit peptide) adjacent to the CaMV35S promoter. This plasmid was designated pMON567. Plasmid pMON567 was inserted into A. tumefaciens cells that contained helper plasmid pGV3111-SE.
A culture of A. tumefaciens cells containing pMON567/pGV3111-SE was contacted with leaf disks taken from tobacco plants (Nicotiana tobacam CV H425) as described by Horsch (1985). The Agrobacterium cells inserted the variant EPSP synthase gene into the chromosomes of the plant cells. Plant cells resistant to kanamycin were selected and regenerated into differentiated plants by the procedure of Horsch (1985).
Progeny of these plants were propagated and grown to a rosette diameter of about 10 cm corresponding to a plant age of about four weeks. The plants were sprayed with glyphosate at levels corresponding to 0.4, 2.0 and 3.6 pounds acid equiv./acre. The effect of glyphosate on the transformed plants were scored at 7, 14 and 28 days. The effect was translated to a numerical scale of 0-10 in which 0 represents total kill and 10 is the normal, unsprayed plant. […] The values represent the best transformant for both wild-type EPSP synthase and glyphosate-tolerant EPSP synthase genes.

MP4 cells = assay: Suspension culture of petunia cells in glyphosate medium; format: cell-based; settings: MS media containing 0.5 mM glyphosate (sodium salt); estimated; read-out: cells which survived, of the starting population
Method: The starting cell line, designated as the MP4 line, was derived from a Mitchell diploid petunia (see e.g., Ausubel 1980). The MP4 cells were suspended in Murashige and Skoog (MS) culture media, (GIBCO, Grand Island, N.Y.) All transfers involved dispensing 10 ml of suspension cultures into 50 ml of fresh media. Cultivation periods until the next transfer ranged from 10 to 14 days, and were based on visual indications that the culture was approaching saturation.
Approximately 10 ml of saturated suspension culture (containing about 5×10^6 cells) were transferred into 50 ml of MS media containing 0.5 mM glyphosate. The sodium salt of glyphosate was used throughout the experiments described herein. The large majority of cells were unable to reproduce in the presence of the glyphosate. The cells which survived (estimated to be less than 1% of the starting population) were cultured in 0.5 mM glyphosate and transferred to fresh media containing glyphosate every 10 to 14 days.

Chain of variant maize preenzyme product of pMON8617 (glycine to alanine and glycine to aspartate) (A0A1D6NVZ6 entry or part of it G163A/G206D): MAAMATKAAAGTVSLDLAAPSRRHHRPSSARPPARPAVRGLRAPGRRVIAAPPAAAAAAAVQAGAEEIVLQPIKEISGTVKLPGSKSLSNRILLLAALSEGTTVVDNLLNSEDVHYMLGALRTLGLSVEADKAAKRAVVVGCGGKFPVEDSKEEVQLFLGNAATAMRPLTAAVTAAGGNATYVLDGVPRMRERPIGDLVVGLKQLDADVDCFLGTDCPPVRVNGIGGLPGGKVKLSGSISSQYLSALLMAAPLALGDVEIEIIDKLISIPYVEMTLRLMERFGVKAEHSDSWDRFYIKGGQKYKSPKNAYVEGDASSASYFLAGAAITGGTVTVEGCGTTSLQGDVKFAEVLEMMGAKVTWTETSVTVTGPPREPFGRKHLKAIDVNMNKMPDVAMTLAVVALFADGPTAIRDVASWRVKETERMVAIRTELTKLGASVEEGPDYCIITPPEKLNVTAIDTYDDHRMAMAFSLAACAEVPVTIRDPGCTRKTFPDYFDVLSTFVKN
Chain of wild type maize pre-EPSP synthase (pMON9951 product) (A0A1D6NVZ6 1-506): as the sequence (A0A1D6NVZ6 entry or part of it G163A/G206D) above, with A163G, D206G counted along it
Chain of wild type petunia EPSP synthase (P11043 73-516): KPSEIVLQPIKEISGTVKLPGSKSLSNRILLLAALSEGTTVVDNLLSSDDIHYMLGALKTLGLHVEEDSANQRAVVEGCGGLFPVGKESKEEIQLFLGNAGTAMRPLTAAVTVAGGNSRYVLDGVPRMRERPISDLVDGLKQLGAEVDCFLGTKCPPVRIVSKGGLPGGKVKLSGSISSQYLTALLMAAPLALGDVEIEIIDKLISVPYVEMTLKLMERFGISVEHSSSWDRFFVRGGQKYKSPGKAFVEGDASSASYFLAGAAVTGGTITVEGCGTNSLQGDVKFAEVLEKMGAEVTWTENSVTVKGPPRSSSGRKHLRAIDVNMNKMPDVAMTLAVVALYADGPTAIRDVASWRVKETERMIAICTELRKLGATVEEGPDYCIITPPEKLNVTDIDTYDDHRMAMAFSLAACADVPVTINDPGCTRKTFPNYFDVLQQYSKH
Chain of petunia EPSP synthase with alanine for the first glycine of the conserved region (P11043 73-516 G170A): as the sequence (P11043 73-516) above, with G98A counted along it

SMILES: O=C(O)CNCP(=O)(O)O [glyphosate, N-phosphonomethylglycine]
- Ki [1]: 400 nM
- time of growth to saturation [2]: ≤ 11 h
- EPSP synthase activity in the presence of glyphosate [3]: no activity was detected
- inhibition of EPSP synthase activity ([4]; 1 mM glyphosate): only slight inhibition
- inhibition of EPSP synthase activity ([4]; 100 mM glyphosate): greater inhibition, but still showing detectable activity
- glyphosate concentration up to which growth on minimal medium is supported [5]: up to 50 mM
- change in glyphosate sensitivity [6]: no attendant changes in glyphosate sensitivity
- Relative Effect of Glyphosate ([7]; 0.4 pounds/Acre, day 7): 8.0
- Relative Effect of Glyphosate ([7]; 0.4 pounds/Acre, day 14): 8.0
- Relative Effect of Glyphosate ([7]; 0.4 pounds/Acre, day 28): 9.0
- Relative Effect of Glyphosate ([7]; 2.0 pounds/Acre, day 7): 8.0
- Relative Effect of Glyphosate ([7]; 2.0 pounds/Acre, day 14): 8.3
- Relative Effect of Glyphosate ([7]; 2.0 pounds/Acre, day 28): 7.0
- Relative Effect of Glyphosate ([7]; 3.6 pounds/Acre, day 7): 5.0
- Relative Effect of Glyphosate ([7]; 3.6 pounds/Acre, day 14): 7.4
- Relative Effect of Glyphosate ([7]; 3.6 pounds/Acre, day 28): 7.0
- viability at 500 µM (MP4 cells): < 1%
